# Source: US8957056B2, “Migrastatin analogs in the treatment of cancer” (Sloan-Kettering Instiute for Cancer Research, priority 2004, dated 2015)
# pIC50: −log10 of the molar value.
# Tests used:
# [1] = test system: mouse breast tumor cells (4T1 cells); assay: Boyden chamber cell migration assay, 4T1; format: cell-based; conditions: 4T1 tumor cells, 6-8 hours; read-out: IC50 value, chamber cell migration assay
# [2] = Mouse blood plasma stability; conditions: test period one hour
# Description: The biological evaluation of the compounds (in terms of their ability to inhibit cell migration) was accomplished in a Boyden chamber cell migration assay. In this assay, mouse breast tumor cells (4T1 cells) or endothelial cells (HUVECs) are seeded on the upper chamber of a transwell insert. Growth factor-containing serum is added to the lower chamber.
# In anticipation of subsequent in vivo evaluation of these compounds and others, preliminary metabolic stability studies were carried out. […] As a test of the ‘deactivation hypothesis’, the hydrolysis product of macrolactone 48 was prepared (Scheme 27) and tested for its activity against tumor cell migration.
# [3] = test system: human breast cancer cell line MDA MB435; assay: Chamber cell migration assay, MDA MB435; format: cell-based; conditions: highly metastatic human breast cancer cell line
# Description: Cell migrations were assayed with 8 μm of microporous 6.5-mm transwell plates (Corning). 200 μl of 2×10^5 cells in serum-free RPMI1640 medium containing 0.5% BSA were added to the upper chamber and 600 μl of medium with 10% fetal bovine serum was added to the lower chamber. […] Cells migrated to the lower wells were collected and counted for liquid tumors, solid tumors were processed as previously described.^28 Data shown are representative of at least three experiments.
# [4] = test system: human colon cancer cell line HT 29; assay: Wound healing (scratch) assay, HT 29; format: cell-based; design: key: successful (+); unsuccessful (−) inhibition of cell migration; conditions: 10X IC50: 48 (240 nM), 55 (1000 nM), 60 (2550 nM); 24 and 48 h
# Description: (§1) The human ovarian cancer cell lines Ovcar3 and IGROV were grown in M5 media. The colon cell lines HT 29 and HCT 116 were cultivated in DMEM containing 10% FCS in a humidified environment at 37° C. Myeloma cell lines CAG (obtained from The Myeloma Institute for Research and Therapy, University of Arkansas) and RPMI8226 as well as lymphoma cell line RL were maintained at RPMI1640 medium containing 10% FCS. All cell lines were acquired from the ATCC if not otherwise stated.
# (§2) The tumor cells were seeded into 24-multiwell plates (Becton-Dickinson) and cultivated until the cells formed a confluent monolayer. Wounds were set by horizontally scratching the monolayer with a sterile pipette tip. The cells were thereafter washed twice with Phosphate Buffered Saline (PBS) to remove detached cells. Growth media was then added containing different concentrations of the chemical compound and incubated at 37° C. […] The cells were photographed at the beginning of the experiment and after 24 and 48 h to assess the progression of cell migration into the wound.
# [5] = test system: colon cell line HCT 116; assay: Wound healing (scratch) assay, HCT 116; format: cell-based, human; design: key: successful (+); unsuccessful (−) inhibition of cell migration; conditions: 10X IC50: 48 (240 nM), 55 (1000 nM), 60 (2550 nM); 24 and 48 h
# Description: as §1, §2
# [6] = test system: human ovarian cancer cell line IGROV; assay: Wound healing (scratch) assay, IGROV; format: cell-based; design: key: successful (+); unsuccessful (−) inhibition of cell migration; conditions: 10X IC50: 48 (240 nM), 55 (1000 nM), 60 (2550 nM); 24 and 48 h
# Description: as §1, §2
# [7] = test system: human ovarian cancer cell line Ovcar3; assay: Wound healing (scratch) assay, Ovcar3; format: cell-based; design: key: successful (+); unsuccessful (−) inhibition of cell migration; conditions: 10X IC50: 48 (240 nM), 55 (1000 nM), 60 (2550 nM); 24 and 48 h
# Description: as §1, §2
# [8] = test system: human breast cancer cell line MDA MB435; assay: Wound healing (scratch) assay, MDA MB435; format: cell-based; design: key: successful (+); unsuccessful (−) inhibition of cell migration; conditions: 10X IC50: 48 (240 nM), 55 (1000 nM), 60 (2550 nM); 24 and 48 h
# Description: as §2
# [9] = test system: CAG cells; assay: CAG cell proliferation assay (XTT); format: cell-based, human; conditions: printed in the legend on CAG cell proliferation; read-out: IC50 (legend of FIG. 3)
# Description: In the last 20 hours, sodium 3′-[1-(phenylamino-carbonyl)-3,4-tetrazolium]-bis(4-methoxy-6-nitro) benzene sulfonic acid hydrate (XTT) was added and optical absorbance at 490 nm were measured. As reference wavelength 650 nm was used. […] The result was expressed as percentage of the control.
# [10] = test system: SKOV; assay: Cell proliferation and viability assay (XTT), SKOV; format: cell-based, human; conditions: 72 h in total, no morphological sign of apoptosis or cell death
# Description: (§3) Cell proliferation and viability measurement were assessed by a colorimetric assay using sodium 39-(phenylaminocarbonyl)-3,4-tetrazolium-bis(4-methoxy-6-nitro) benzene sulfonic acid hydrate (XTT, Sigma, St. Louis, Mo.), and phenazine methosulphate (PMS, Sigma, St. Louis, Mo.). Cells from indicated lines were plated at 5˜10×10×10^3/well in 96 well plates in the presence of different concentration of compounds for 52 hrs. Then 50 μL of XTT/PMS mixture was added to each well and incubated for an additional 20 hrs at 37° C. Plate absorbance was measured directly at optical density of 490 nm (reference wavelength at 650 nm) in an ELISA reader (Thermo Max Microplate Reader, Molecular Devices, CA). The data was expressed as the mean of readings obtained in wells with treatment with subtraction of the reading with vehicle control. The total metabolic activity, which correspond to the number of living cells directly correlate to the amount of orange formazan formed in a cell. The result is expressed as percentage of the control.
# [11] = test system: HT29; assay: Cell proliferation and viability assay (XTT), HT29; format: cell-based, human; conditions: 72 h in total, no morphological sign of apoptosis or cell death
# Description: as §3
# [12] = test system: IGROV; assay: Cell proliferation and viability assay (XTT), IGROV; format: cell-based, human; conditions: 72 h in total, no morphological sign of apoptosis or cell death
# Description: as §3
# [13] = test system: HCT116; assay: Cell proliferation and viability assay (XTT), HCT116; format: cell-based, human; conditions: 72 h in total
# Description: as §3
# [14] = test system: Ovcar3; assay: Cell proliferation and viability assay (XTT), Ovcar3; format: cell-based, human; conditions: 72 h in total
# Description: as §3
# [15] = test system: Ovcar4; assay: Cell proliferation and viability assay (XTT), Ovcar4; format: cell-based, human; conditions: 72 h in total
# Description: as §3
# [16] = test system: human ovarian tumor cell line OVCAR3; assay: In vivo metastatic ovarian xenograph model (OVCAR3 HSV-TK/eGFP/FLuc); design: species or system mouse
# Excerpt: The human ovarian tumor cell line OVCAR3 was transduced with a triple fusion gene HSV-TK/eGFP/FLuc, expressing thymidine kinase, enhanced green fluorescence protein and firefly luciferase. Whole animal imaging by luciferase bioluminescence (FIGS. 7A & B), allowed identification and quantification of disseminated tumor. We quantified the tumor burden in each organ, by sacrificing the mouse shortly after luciferin injecting and imaging of the dissected organs (lung, liver and spleen) (FIG. 8). In all instances tumor engraftment was initiated with 1-5×10^7 cells and the recipients received 3 Gy irradiation 10 days before tumor engraftment. These tumor cells generated bulky omental metastases with diffuse microscopic peritoneal carcinomatosis causing ascites (FIG. 9), significant pleural effusion with diffuse macroscopic peritoneal carcinomatosis and liver, lung and paraaortic metastases.
# Treatment was initiated once primary tumor was well established. Animals were imaged at weekly intervals to monitor tumor growth and location of metastases (imaging sensitivity 200-500 cells).
# [17] = test system: human colon cancer cells (HT29); assay: Microarray analysis of treated HT29 cells; format: cell-based; conditions: 500 nM, 6 h and 18 h
# Description: (§4) For the microarray comparison (Affymetrix chip -AU133 plus) human ovarian cancer cells (Ovcar3) and human colon cancer cells (HT29) were treated with 500 nM DMC (48) for 6 h and 18 h or left untreated. A large panel of up and down regulated genes were detected including a broad array of motility, cell shape and chemotaxis genes (FIG. 17).
# [18] = test system: human ovarian cancer cells Ovcar3; assay: Immunofluorescence staining of treated Ovcar3 cells; format: cell-based; conditions: 500 nM
# Description: as §4
# Ovcar3 cells in exponential growth phase were seeded into 24 well plates at 2×10^4/ml in the presence of 500 nM of DMC (48). […] At the time of staining, cells were pre-blocked at room temperature in PBS with 3% BSA and 0.2% Na-azide. After washing, the cells were then incubated with indicated monoclonal antibody (FIG. 18), diluted 1:200 in 1.5% blocking serum, at 37° C. Cells were washed again and incubated with anti-mouse-Alexa red secondary antibody in the dark at 37° C. Cells were then counter-stained with 4,6-diamidino-2-phenylindole (DAPI) at 0.2 μg/ml PBS.
# [19] = 40 mg/kg three times a week for 10 treatments
# [20] = daily injection of 40 mg/kg i.p.
structure (smiles),measurement,setting,value
"CO[C@H]1/C=C/CCCCC(=O)OC/C(C)=C\[C@@H](C)[C@@H]1O [Compound 48, Macrolactone]",pIC50,[1],7.62
same,metabolic stability in mouse blood plasma,[2],hydrolyzed rapidly
same,response of MDA MB435 to the compound,[3],responded only slightly
same,"inhibition of cell migration, wound healing assay, HT 29",[4],+
same,"inhibition of cell migration, wound healing assay, HCT 116",[5],+
same,"inhibition of cell migration, wound healing assay, IGROV",[6],+
same,"inhibition of cell migration, wound healing assay, Ovcar3",[7],+
same,"inhibition of cell migration, wound healing assay, MDA MB435",[8],+
same,pIC50,[9],7.62
same,"effect on proliferation, SKOV",[10],inhibition of proliferation
same,"effect on proliferation, HT29",[11],inhibition of proliferation
same,"effect on proliferation, IGROV",[12],inhibition of proliferation
same,"effect on proliferation, HCT116",[13],uninfluenced
same,"effect on proliferation, Ovcar3",[14],uninfluenced
same,"effect on proliferation, Ovcar4",[15],uninfluenced
same,reduction of metastasis for liver,[16]; [19],80%
same,reduction of metastasis in lung and spleen,[16]; [19],highly significant reduction
same,treated mice that had ascitis,"[16]; FIG. 9, 4 out of 4 control mice had ascitis",1 out of 4
same,survival,[16]; [20],increase of survival
same,total tumor mass,[16]; [20],reduction of the total tumor mass
same,mice with inhibition of ascitis at the endpoint,"[16]; daily injection of 40 mg/kg i.p., all control mice developed ascites",3 out of 4
same,"E-cadherin expression, micro array",[17],upregulation
same,"Integrin α2 and CD44, immunofluorescent microscopy",[18],Upregulated
same,"β-tubulin, immunofluorescent microscopy",[18]; after 6 h or 24 h,did not show any modulations
